Values joined by “and” are separate entries in the source; they are usually repeats but may differ in a detail not shown here. Equal values may be shown once.
Columns and labels:
[1] = biological target: T1, Bcl-xL (Homo sapiens, UniProt Q07817); assay: HTRF competition test, Bcl-xL with FAM-Bad peptide (enzymology experiment); format: binding; conditions: 3 nM Bcl-xL and 40 nM FAM-Bad, read-out: IC50 (nM) for inhibition of Bcl-xL enzyme
T1 construct: Human recombinant Bcl-xL (amino acid 1-209); purchased Reaction Biology Corporation (RBC) APT-11-442; host or cells: E. coli
T1 sequence (Q07817 1-209): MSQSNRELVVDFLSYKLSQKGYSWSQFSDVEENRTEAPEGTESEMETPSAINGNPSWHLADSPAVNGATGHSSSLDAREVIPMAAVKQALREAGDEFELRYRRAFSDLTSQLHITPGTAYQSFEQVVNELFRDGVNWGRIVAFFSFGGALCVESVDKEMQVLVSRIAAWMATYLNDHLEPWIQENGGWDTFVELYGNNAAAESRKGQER
Experimental: This experiment was based on the competition between fluorescently-labeled Bak/Bad/Noxa peptides and GST-labeled Bcl family proteins. The fluorescence detection method based on HTRF was to observe the binding degree by using the fluorescence ratio between Tb-labeled anti-GST and FAM-labeled peptides. This peptide binds to the surface of the Bcl family protein pocket, which is essential for its anti-apoptotic function.
1.1 Experimental reagents: analysis buffer: 20 mM potassium phosphate, pH 7.5, 50 mM sodium chloride, 1 mM EDTA, 0.005% Tritonx-100 and 1% DMSO.
1.2 Probe: 5,6-FAM-peptide
1.4 Experimental Conditions:
3 nM Bcl-xL and 40 nM FAM-Bad
a) The Bcl enzyme reaction solution was prepared in the newly prepared analysis buffer;
b) the Bcl enzyme reaction solution was provided;
c) the compound was first prepared into a 100% dimethyl sulfoxide solution, and then the compound solution was mixed with the Bcl enzyme reaction solution using (Echo550; nanoliter range) technology, and co-incubated for 10 minutes;
d) the FAM peptide solution was added.
e) the mixed solution was gently stirred in dark and room temperature, and co-cultured for 10 minutes.
f) Anti-GST solution was added.
g) The mixed solution was gently stirred in dark and room temperature, and co-cultured for 1 hour.
h) The HTRF high-frequency fluorescence ratio was tested, and the IC50 values were calculated.

[2] = tested on: human acute lymphoblastic leukemia cell RS4;11 graft tumor; assay: In vivo anti-tumor effect, RS4;11 graft tumor model in BALB/c nude mice; set-up: species or system BALB/c nude mouse; conditions: for T/C (relative tumor proliferation rate) / TGI (tumor growth inhibition rate): based on tumor volume on day 32
Experimental: 5.1 Experimental animals: Balb/c nude mice, 32 mice, 7 to 8 weeks old, female;
5.2 tumor cells: human acute lymphoblastic leukemia cell line RS4;11, cultured in a suspension in vitro, and the culture conditions were RPMI-1640 culture medium containing 10% fetal bovine serum, cultured in a 5% CO2 incubator at 37° C. When the cells were in exponential growth period and the saturation was 80% to 90%, the cells were collected and counted;
5.3 cell seeding and grouping: the cells were resuspended in […], and the basement membrane matrigel was added in 1:1, and the mixture was mixed well, and the density was 5×10^7 cells/mL. 0.2 mL of cell suspension (containing 1×10^7 RS4;11 cells) was subcutaneously inoculated on the right back of each mouse, and when the average tumor volume reached about 120 mm^3, the drug was administered randomly according to the tumor volume;
5.4 preparation of the subject: an appropriate amount of compound 2 was weighed respectively, and the solvent formula was 2.5% dimethyl sulfoxide, 5% ethanol, 10% cremophor EL, 20% glucose solution (concentration of 5%), 62.5% water;
5.5 tumor-bearing mice divided into four groups (8 mice in each group) were given blank solvent, compound 2 (12.5 mpk, QD), compound 2 (25 mpk, QD) and compound 2 (50 mpk, QD), respectively;
5.6 tumor measurement and experimental indicators:
tumor diameters were measured with vernier calipers two times a week. The calculation formula of tumor volume is: V=0.5×a×b^2, a represents the long diameter of the tumor, and b represents the short diameter of the tumor. The tumor inhibition efficacy of the compounds was evaluated by TGI (%) or relative tumor proliferation rate T/C (%).
Relative tumor proliferation rate T/C %=TRTV/CRTV×100% (TRTV: RTV in the treatment group; CRTV: RTV in the negative control group). The relative tumor volume (RTV) is calculated according to the results of tumor measurement, and the formula is RTV=Vt/V0, where V0 is the tumor volume measured at the time of group administration (i.e., D0), and Vt is the tumor volume measured at a certain measurement, TRTV and CRTV were taken on the same day.
TGI (%), reflecting the tumor growth inhibition rate. The formula for calculating the tumor inhibition efficacy TGI is: […]

CC1(C)CCC(CN2CCN(c3ccc(C(=O)NS(=O)(=O)c4cc([N+](=O)[O-])c(NCC5CCOCC5)c5[nH]cnc45)c(Oc4cnc5[nH]ccc5c4)c3)CC2)=C(c2ccc(Cl)cc2)C1 [Compound 2]
IC50 [1]: 411 nM | animal state during the experiment ([2]; 12.5, 25, 50 mpk, QD): normal | T/C (relative tumor proliferation rate) ([2]; 12.5 mpk, QD): 22.37% | TGI (tumor growth inhibition rate) ([2]; 12.5 mpk, QD): 82.12% | Tumor volume ([2]; 12.5 mpk, QD, day 1 after administration, mean ± SEM, n = 8): 114.44 ± 4.91 mm^3 and 114.44 mm^3 | Tumor volume ([2]; 12.5 mpk, QD, day 4 after administration): 124.75 ± 10.85 mm^3 | Tumor volume ([2]; 12.5 mpk, QD, day 6 after administration): 120.60 ± 12.60 mm^3 | Tumor volume ([2]; 12.5 mpk, QD, day 8 after administration): 124.22 ± 15.25 mm^3 | Tumor volume ([2]; 12.5 mpk, QD, day 11 after administration): 126.73 ± 11.57 mm^3 | Tumor volume ([2]; 12.5 mpk, QD, day 14 after administration): 145.41 ± 17.58 mm^3 | Tumor volume ([2]; 12.5 mpk, QD, day 18 after administration): 198.17 ± 38.18 mm^3 | Tumor volume ([2]; 12.5 mpk, QD, day 21 after administration): 209.63 ± 39.56 mm^3 | Tumor volume ([2]; 12.5 mpk, QD, day 25 after administration): 254.52 ± 52.29 mm^3 | Tumor volume ([2]; 12.5 mpk, QD, day 28 after administration): 306.93 ± 66.01 mm^3 | Tumor volume ([2]; 12.5 mpk, QD, day 32 after administration, mean ± SEM, n = 8): 365.13 ± 85.31 mm^3 and 365.13 mm^3 | T/C (relative tumor proliferation rate) ([2]; 25 mpk, QD): 16.54% | TGI (tumor growth inhibition rate) ([2]; 25 mpk, QD): 89.15% | Tumor volume ([2]; 25 mpk, QD, day 1 after administration, mean ± SEM, n = 8): 114.50 ± 4.98 mm^3 and 114.50 mm^3 | Tumor volume ([2]; 25 mpk, QD, day 4 after administration): 99.54 ± 6.66 mm^3 | Tumor volume ([2]; 25 mpk, QD, day 6 after administration): 106.03 ± 13.15 mm^3 | Tumor volume ([2]; 25 mpk, QD, day 8 after administration): 107.66 ± 15.62 mm^3 | Tumor volume ([2]; 25 mpk, QD, day 11 after administration): 101.57 ± 15.87 mm^3 | Tumor volume ([2]; 25 mpk, QD, day 14 after administration): 116.52 ± 28.85 mm^3 | Tumor volume ([2]; 25 mpk, QD, day 18 after administration): 146.77 ± 44.03 mm^3 | Tumor volume ([2]; 25 mpk, QD, day 21 after administration): 191.06 ± 69.68 mm^3 | Tumor volume ([2]; 25 mpk, QD, day 25 after administration): 174.50 ± 58.56 mm^3 | Tumor volume ([2]; 25 mpk, QD, day 28 after administration): 206.82 ± 76.64 mm^3 | Tumor volume ([2]; 25 mpk, QD, day 32 after administration, mean ± SEM, n = 8): 266.63 ± 95.51 mm^3 and 266.63 mm^3 | T/C (relative tumor proliferation rate) ([2]; 50 mpk, QD): 7.30% | TGI (tumor growth inhibition rate) ([2]; 50 mpk, QD): 100.27% | Tumor volume ([2]; 50 mpk, QD, day 1 after administration, mean ± SEM, n = 8): 114.18 ± 4.30 mm^3 and 114.18 mm^3 | Tumor volume ([2]; 50 mpk, QD, day 4 after administration): 95.13 ± 7.43 mm^3 | Tumor volume ([2]; 50 mpk, QD, day 6 after administration): 91.16 ± 6.08 mm^3 | Tumor volume ([2]; 50 mpk, QD, day 8 after administration): 86.91 ± 4.92 mm^3 | Tumor volume ([2]; 50 mpk, QD, day 11 after administration): 67.64 ± 3.93 mm^3 | Tumor volume ([2]; 50 mpk, QD, day 14 after administration): 74.27 ± 6.37 mm^3 | Tumor volume ([2]; 50 mpk, QD, day 18 after administration): 58.39 ± 6.94 mm^3 | Tumor volume ([2]; 50 mpk, QD, day 21 after administration): 70.21 ± 8.91 mm^3 | Tumor volume ([2]; 50 mpk, QD, day 25 after administration): 75.62 ± 10.30 mm^3 | Tumor volume ([2]; 50 mpk, QD, day 28 after administration): 78.03 ± 9.52 mm^3 | Tumor volume ([2]; 50 mpk, QD, day 32 after administration, mean ± SEM, n = 8): 110.37 ± 19.73 mm^3 and 110.37 mm^3 | tumor inhibition effect (in words) ([2]; three dose groups (12.5, 25, 50 mpk, QD), obvious dose-dependence): significant tumor inhibition effect
